# Measurements reported in patent publication US20060052459A1, “Antifungal medicaments comprising arylamidine derivatives” (priority 2002, published 2006).
# Read-outs that look alike come from different tables or passages of the source.
# Assays:
# [1] = test system: Aspergillus fumigatus strain IP 864.64; experiment: In vitro antifungal growth inhibition on microtitre plates (optical density 590 nm), compounds alone or as mixtures (Wadley method); assay type: cell-based; conditions: for inhibition at 0.026 µg/mL / inhibition at 0.098 µg/mL / inhibition at 0.39 µg/mL / inhibition at 1.562 µg/mL / inhibition at 6.25 µg/mL / inhibition at 25 µg/mL / inhibition at 100 µg/mL / EC50: Aspergillus fumigatus; for inhibition at 0.026 µg/mL: dose 0.026 μg/ml; for inhibition at 0.098 µg/mL: dose 0.098 μg/ml; for inhibition at 0.39 µg/mL: dose 0.39 μg/ml; for inhibition at 1.562 µg/mL: dose 1.562 μg/ml; for inhibition at 6.25 µg/mL: dose 6.25 μg/ml; for inhibition at 25 µg/mL: dose 25 μg/ml; for inhibition at 100 µg/mL: dose 100 μg/ml
# Procedure: (§1) The following fungi were used for this study: Candida albicans strains IP 48.72 (ATCC 10231) and Aspergillus fumigatus strain IP 864.64 obtained from the Collection Nationale de Cultures de Microorganismes (CNCM) of the Institut Pasteur. The strains are cultured on Yeast Extract-Peptone-Dextrose (YEPD) agar medium comprising 0.5% yeast extract, 0.5% bactopeptone, 2% glucose and 2% agar at 30° C. and in the dark.
# (§2) All these compounds were prepared in a DMSO solution at a final concentration of 100 mg/ml. The stock solutions are stored at −20° C. up to the time of use.
# (§3) The trials are carried out in RPMI 1640 medium with no sodium bicarbonate, but with L-glutamine buffered with 0.165 mol per litre of 3-[N-morpholino]propanesulphonic acid (MOPS), enriched (<>) or otherwise (<>) with 2% glucose. The pH of this medium is adjusted to 7.0. The medium is sterilized by filtration (0.22 μm) and stored at 4° C. up to the time of use.
# (§4) All the antifungal tests are carried out on microtitre plates. The initial suspensions of spores are prepared in a sterile solution containing 0.85% NaCl, supplemented with Tween 80 at 0.01%. These initial suspensions are then diluted in the culture medium (RPMI 1640 enriched or otherwise with 2% glucose) to a final concentration of 10^4 spores per ml. The measurements of viability of each inoculum are verified by subcultures of a volume of 300 μl on YEPD agar medium.
# (§5) The antifungal compounds are tested in a range of concentrations ranging from 0.026 to 100 μg of active ingredient/ml. These antifungal compounds are then diluted in RPMI 1640 medium enriched or otherwise with 2% glucose. A final DMSO concentration of 0.2% is used throughout the measurements. Each trial is carried out on a series of dilutions of antifungal compounds, in duplicate. The antifungal dilutions (0.1 ml) and the fungal inoculum (0.1 ml) are added to each of the wells of the microtitre plate. The plates are then read with a spectrophotometer (ELX 800UV Bio-Tek Instruments, Inc) at a wavelength of 590 nm. The plates are read immediately after (t=0) and after 48 hours' incubation at 30° C. and in the dark. The optical density values obtained are correlated with fungal growth between the times t=0 and t=48 hours. The optical density values are used to calculate the percentage inhibition of growth for each concentration of antifungals by comparison with the control. The values are then used to plot a dose-response curve and the EC50 value is determined for each fungus and each compound with the aid of the Grafit 5.0® software (Erithacus software Ltd).
# (§6) The method which was used to measure the type of interaction existing between the antifungal compounds in the form of mixtures is the Wadley method.
# (§7) In the Wadley approach, the dose-response curve for each of the compounds A and B, and for the mixture AB, is constructed. The EC50 is calculated for each compound taken individually and for the mixture. If a and b are the absolute quantities of the compounds A and B in the mixture (a=1, b=1, a+b=2 under our conditions), the expected effective concentration (EC50exp) may be calculated in the following manner: EC50exp=(a+b)/[a/EC50A)+b/(EC50B)
# (§8) The Wadley approach may be used to estimate the type of interaction existing between the fungal compounds, regardless of their concentration. Its reliability is not dependent on the percentage inhibition. The type of interaction between two compounds is given by the level of interaction (LI) which corresponds to the ratio between the expected effective concentration (EC50exp) and that observed (EC50obs) of the mixture. The nature of the interaction obtained by the Wadley formula is presented in Table 1 (see U. Gisi, Synergistic interaction in fungicide mixtures, 1996. Phytopathology 86, 1273-1279) below.
# (§9) The experimental conditions are the same as previously described.
# [2] = test system: Candida albicans strains IP 48.72 (ATCC 10231); experiment: as above; assay type: cell-based; conditions: for inhibition at 0.026 µg/mL / inhibition at 0.098 µg/mL / inhibition at 0.39 µg/mL / inhibition at 1.562 µg/mL / inhibition at 6.25 µg/mL / inhibition at 25 µg/mL / inhibition at 100 µg/mL / EC50: Candida albicans; for inhibition at 0.026 µg/mL: dose 0.026 μg/ml; for inhibition at 0.098 µg/mL: dose 0.098 μg/ml; for inhibition at 0.39 µg/mL: dose 0.39 μg/ml; for inhibition at 1.562 µg/mL: dose 1.562 μg/ml; for inhibition at 6.25 µg/mL: dose 6.25 μg/ml; for inhibition at 25 µg/mL: dose 25 μg/ml; for inhibition at 100 µg/mL: dose 100 μg/ml
# Procedure: as §1, §2, §3, §4, §5, §6, §7, §8, §9
# [3] = IP864.64, 48 h, minimal RPMI 1640 medium (MM), 48 hours at 30° C.
# [4] = IP864.64, 48 h, rich RPMI 1640 medium (RM), 48 hours at 30° C.
# [5] = IP864.64, 48 h, second study, strain IP 864.64, RPMI 1640 medium enriched with 2% glucose, 48 hours at 30° C., read-out: EC50
# [6] = ATCC10231, 48 h, minimal RPMI 1640 medium (MM), 48 hours at 30° C.
# [7] = ATCC10231, 48 h, rich RPMI 1640 medium (RM), 48 hours at 30° C.
# [8] = ATCC10231, 48 h, minimal RPMI 1640 medium (MM), 48 hours at 30° C., used alone, read-out: EC50
# [9] = ATCC10231, 48 h, rich RPMI 1640 medium (RM), 48 hours at 30° C., used alone, read-out: EC50
# [10] = ATCC10231, 48 h, second study, strain IP 48.72, RPMI 1640 medium enriched with 2% glucose, 48 hours at 30° C., read-out: EC50
SMILES,"inhibition at 0.026 µg/mL [1, 3] [%]","inhibition at 0.026 µg/mL [1, 4] [%]","inhibition at 0.098 µg/mL [1, 3] [%]","inhibition at 0.098 µg/mL [1, 4] [%]","inhibition at 0.39 µg/mL [1, 3] [%]","inhibition at 0.39 µg/mL [1, 4] [%]","inhibition at 1.562 µg/mL [1, 3] [%]","inhibition at 1.562 µg/mL [1, 4] [%]","inhibition at 6.25 µg/mL [1, 3] [%]","inhibition at 6.25 µg/mL [1, 4] [%]","inhibition at 25 µg/mL [1, 3] [%]","inhibition at 25 µg/mL [1, 4] [%]","inhibition at 100 µg/mL [1, 3] [%]","inhibition at 100 µg/mL [1, 4] [%]","EC50 [1, 5] [µg/mL]","inhibition at 0.026 µg/mL [2, 6] [%]","inhibition at 0.026 µg/mL [2, 7] [%]","inhibition at 0.098 µg/mL [2, 6] [%]","inhibition at 0.098 µg/mL [2, 7] [%]","inhibition at 0.39 µg/mL [2, 6] [%]",further results
"CCN(C)C=Nc1cc(C)c(Oc2ccc(Cl)c(C(F)(F)F)c2)cc1C [Compound I.1, N-ethyl-N-methyl-N′-[4-(4-chloro-3-trifluoromethylphenoxy)-2,5-dimethylphenyl]imidoformamide]",1,2.24,57.9,23.1,80.1,51.1,94.6,97.4,97.1,98.1,98.4,98.1,98.1,97.4,0.179,4.6,12.6,7,27.3,46.1,"EC50 ([1]; IP864.64, 48 h, minimal RPMI 1640 medium (MM), 48 hours at 30° C., used alone, read-out: EC50): 0.1 µg/mL; EC50 ([1]; IP864.64, 48 h, rich RPMI 1640 medium (RM), 48 hours at 30° C., used alone, read-out: EC50): 0.31 µg/mL; EC50 ([1]; IP864.64, on minimal (MM) or rich (RM) RPMI 1640 medium, summary in conclusions, read-out: EC50 values): 0.1 to 0.5 µg/mL; activity compared with itraconazole (compound II.2) ([1]; MM or RM medium): equivalent; EC50 compared with that of compound II.2 ([1]; second study, IP 864.64, enriched medium): similar; inhibition at 0.39 µg/mL [2, 7]: 43.6%; inhibition at 1.562 µg/mL [2, 6]: 96.2%; inhibition at 1.562 µg/mL [2, 7]: 96.9%; inhibition at 6.25 µg/mL [2, 6]: 98.7%; inhibition at 6.25 µg/mL [2, 7]: 99.5%; inhibition at 25 µg/mL [2, 6]: 99.2%; inhibition at 25 µg/mL [2, 7]: 99.5%; inhibition at 100 µg/mL [2, 6]: 98.1%; inhibition at 100 µg/mL [2, 7]: 98.8%; EC50 [2, 8]: 0.41 µg/mL; EC50 [2, 9]: 0.3 µg/mL; EC50 [2, 10]: 0.635 µg/mL; EC50 ([2]; ATCC10231, on minimal (MM) or rich (RM) RPMI 1640 medium, summary in conclusions, read-out: EC50 values): 0.1 to 0.5 µg/mL; activity compared with fluconazole (compound II.1) ([2]; MM or RM medium): at least equivalent"
"OC(Cn1cncn1)(Cn1cncn1)c1ccc(F)cc1F [Compound II.1, fluconazole]",4.8,11.2,4.8,20.7,5.8,25.9,8.7,27.6,7.7,28.4,23.1,48.3,41.4,46.6,125,2.1,11.1,9.7,32.5,38.5,"EC50 ([1]; IP864.64, 48 h, minimal RPMI 1640 medium (MM), 48 hours at 30° C., extrapolated with Grafit 5.0, read-out: EC50 (extrapolated from the dose-response curves)): 575 µg/mL; EC50 ([1]; IP864.64, 48 h, rich RPMI 1640 medium (RM), 48 hours at 30° C., extrapolated with Grafit 5.0, read-out: EC50 (extrapolated from the dose-response curves)): 125 µg/mL; inhibition at 0.39 µg/mL [2, 7]: 72.6%; inhibition at 1.562 µg/mL [2, 6]: 64.7%; inhibition at 1.562 µg/mL [2, 7]: 86.8%; inhibition at 6.25 µg/mL [2, 6]: 77.7%; inhibition at 6.25 µg/mL [2, 7]: 94%; inhibition at 25 µg/mL [2, 6]: 81.9%; inhibition at 25 µg/mL [2, 7]: 95.3%; inhibition at 100 µg/mL [2, 6]: 91.6%; inhibition at 100 µg/mL [2, 7]: 36.1%; EC50 [2, 8]: 0.96 µg/mL; EC50 [2, 9]: 0.19 µg/mL; EC50 [2, 10]: 0.354 µg/mL"
